# Laboratory results: the NIST ThermoML archive (doi:10.1021/je2006117)
# Several values for one entry are separate records, joined by “and”; a condition that tells them apart may be missing. Equal entries are not always repeated. ± gives the expanded uncertainty stated by the source.
# Legend:
# [1] = mn = molality of the nth substance listed, in mol/kg; conditions: 298.15 K, 101 kPa, Liquid; for mass density: Vibrating tube method; for viscosity: Capillary tube (Ostwald / Ubbelohde) method
# [2] = refractive index (Na D-line) (dimensionless); mn = molality of the nth substance listed, in mol/kg; conditions: 298.15 K, 101 kPa, Liquid, Standard Abbe refractometry
# [3] = 298.15 K, Liquid
# [4] = refractive index (Na D-line) (dimensionless); conditions: 298.15 K; 101.33 kPa; Liquid; Standard Abbe refractometry
structure (smiles),measurement,setting,value
"C(=NCCN=Cc1ccccn1)c1ccccn1 [N,N'-bis(2-pyridinylmethylene)-1,2-ethanediamine] + CN(C)C=O",mass density,[1]; m1 = 0.0401,945.31 ± 0.8 kg/m3
same,mass density,[1]; m1 = 0.0484,945.37 ± 0.8 kg/m3
same,mass density,[1]; m1 = 0.0728,946.33 ± 0.8 kg/m3
same,mass density,[1]; m1 = 0.0941,946.67 ± 0.8 kg/m3
same,mass density,[1]; m1 = 0.1205,947.34 ± 0.8 kg/m3
same,mass density,[1]; m1 = 0.1508,948.27 ± 0.8 kg/m3
same,mass density,[1]; m1 = 0.1553,949.12 ± 0.8 kg/m3 and 949.25 ± 0.8 kg/m3
CCCCCn1cc[n+](C)c1.[Br-] [1-pentyl-3-methylimidazolium bromide] + CN(C)C=O,viscosity,[1]; m1 = 0.0201,0.877 ± 0.008 mPa·s
same,viscosity,[1]; m1 = 0.0409,0.89 ± 0.008 mPa·s
same,viscosity,[1]; m1 = 0.0618,0.899 ± 0.008 mPa·s
same,viscosity,[1]; m1 = 0.0853,0.912 ± 0.008 mPa·s
same,viscosity,[1]; m1 = 0.1009,0.925 ± 0.008 mPa·s
same,viscosity,[1]; m1 = 0.1186,0.942 ± 0.008 mPa·s
same,viscosity,[1]; m1 = 0.1433,0.957 ± 0.008 mPa·s
same,viscosity,[1]; m1 = 0.161,0.965 ± 0.008 mPa·s
same,viscosity,[1]; m1 = 0.1798,0.982 ± 0.008 mPa·s
same,viscosity,[1]; m1 = 0.205,0.991 ± 0.008 mPa·s
same,mass density,[1]; m1 = 0.0201,945.2 ± 0.11 kg/m3
same,mass density,[1]; m1 = 0.0409,946.55 ± 0.11 kg/m3
same,mass density,[1]; m1 = 0.0618,947.88 ± 0.11 kg/m3
same,mass density,[1]; m1 = 0.0853,949.36 ± 0.11 kg/m3
same,mass density,[1]; m1 = 0.1009,950.32 ± 0.11 kg/m3
same,mass density,[1]; m1 = 0.1186,951.39 ± 0.11 kg/m3
same,mass density,[1]; m1 = 0.1433,952.9 ± 0.11 kg/m3
same,mass density,[1]; m1 = 0.161,953.93 ± 0.11 kg/m3
same,mass density,[1]; m1 = 0.1798,955.02 ± 0.11 kg/m3
same,mass density,[1]; m1 = 0.205,956.48 ± 0.11 kg/m3
same,refractive index,[2]; m1 = 0.0201,1.4291 ± 0.0004
same,refractive index,[2]; m1 = 0.0409,1.4297 ± 0.0004
same,refractive index,[2]; m1 = 0.0618,1.4299 ± 0.0004
same,refractive index,[2]; m1 = 0.0853,1.4309 ± 0.0004
same,refractive index,[2]; m1 = 0.1009,1.4312 ± 0.0004
same,refractive index,[2]; m1 = 0.1186,1.4317 ± 0.0004
same,refractive index,[2]; m1 = 0.1433,1.432 ± 0.0004
same,refractive index,[2]; m1 = 0.161,1.4323 ± 0.0004
same,refractive index,[2]; m1 = 0.1798,1.4329 ± 0.0004
same,refractive index,[2]; m1 = 0.205,1.4333 ± 0.0004
CN(C)C=O [dimethylformamide],mass density,"[3]; 101 kPa, Vibrating tube method",943.88 ± 0.11 kg/m3 and 943.99 ± 0.11 kg/m3
same,mass density,[3]; 101.33 kPa,943.88 ± 0.23 kg/m3
same,viscosity,"[3]; 101.33 kPa, Capillary tube (Ostwald / Ubbelohde) method",0.8608 ± 0.0068 mPa·s
same,refractive index,[4],1.4285 ± 0.0004
CCC[n+]1ccn(C)c1.[Br-] [1-methyl-3-propylimidazolium bromide] + CN(C)C=O,viscosity,[1]; m1 = 0.0268,0.88 ± 0.008 mPa·s
same,viscosity,[1]; m1 = 0.0444,0.889 ± 0.008 mPa·s
same,viscosity,[1]; m1 = 0.0628,0.897 ± 0.008 mPa·s
same,viscosity,[1]; m1 = 0.0851,0.905 ± 0.008 mPa·s
same,viscosity,[1]; m1 = 0.103,0.917 ± 0.008 mPa·s
same,viscosity,[1]; m1 = 0.1256,0.923 ± 0.008 mPa·s
same,viscosity,[1]; m1 = 0.1396,0.936 ± 0.008 mPa·s
same,viscosity,[1]; m1 = 0.1656,0.956 ± 0.008 mPa·s
same,viscosity,[1]; m1 = 0.1826,0.966 ± 0.008 mPa·s
same,viscosity,[1]; m1 = 0.2057,0.975 ± 0.008 mPa·s
same,mass density,[1]; m1 = 0.0268,945.94 ± 0.11 kg/m3
same,mass density,[1]; m1 = 0.0444,947.2 ± 0.1 kg/m3
same,mass density,[1]; m1 = 0.0628,948.49 ± 0.11 kg/m3
same,mass density,[1]; m1 = 0.0851,950.04 ± 0.11 kg/m3
same,mass density,[1]; m1 = 0.103,951.26 ± 0.11 kg/m3
same,mass density,[1]; m1 = 0.1256,952.76 ± 0.11 kg/m3
same,mass density,[1]; m1 = 0.1396,953.7 ± 0.11 kg/m3
same,mass density,[1]; m1 = 0.1656,955.41 ± 0.11 kg/m3
same,mass density,[1]; m1 = 0.1826,956.49 ± 0.11 kg/m3
same,mass density,[1]; m1 = 0.2057,957.93 ± 0.11 kg/m3
same,refractive index,[2]; m1 = 0.0268,1.4289 ± 0.0004
same,refractive index,[2]; m1 = 0.0444,1.4296 ± 0.0004
same,refractive index,[2]; m1 = 0.0628,1.4302 ± 0.0004
same,refractive index,[2]; m1 = 0.0851,1.4307 ± 0.0004
same,refractive index,[2]; m1 = 0.103,1.4309 ± 0.0004
same,refractive index,[2]; m1 = 0.1256,1.4312 ± 0.0004
same,refractive index,[2]; m1 = 0.1396,1.4317 ± 0.0004
same,refractive index,[2]; m1 = 0.1656,1.4321 ± 0.0004
same,refractive index,[2]; m1 = 0.1826,1.4328 ± 0.0004
same,refractive index,[2]; m1 = 0.2057,1.4336 ± 0.0004
